Data: patent US9204640B2, “2-acyloxy-pyrrolin-4-ones” (BAYER INTELLECTUAL PROPERTY GMBH, priority 2011, dated 2015)

Experiments:
Assay type in all cases: in vivo
Bemisia tabaci = Bemisia tabaci spray test (BEMITA); conditions: 20 g/ha; 7dat
Experimental: Bemisia Tabaci-Spray Test ([…]) To produce a suitable preparation of active compound, 1 part by weight of active compound is mixed with the stated amount of solvent and emulsifier, and the concentrate is diluted with emulsifier-containing water to the desired concentration. Discs of cotton leaves (Gossypium hirsutum) which are infested by all stages of the whitefly (Bemisia tabaci) are sprayed with an active compound preparation of the desired concentration. After the desired period of time, the activity in % is determined. 100% means that all the whiteflies have been killed; 0% means that none of the whiteflies have been killed.

Myzus persicae = experiment: Myzus test (MYZUPE spray treatment); conditions: application rate 500 g/ha, after 5 days, Chinese cabbage leaf discs
Summary of the method: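 Chinese cabbage leaf discs carrying all stages of green peach aphid sprayed with compound diluted in emulsifier-containing water to the desired concentration. Mortality scored as % after 5 days, where 100% means all aphids dead and 0% none.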

Liriomyza trifolii = Liriomyza trifolii spray test (LIRITR); conditions: 20 g/ha; 7dat
Experimental: Liriomyza Trifolii-Spray Test ([…]) To produce a suitable preparation of active compound, 1 part by weight of active compound is mixed with the stated amount of solvent and emulsifier, and the concentrate is diluted with emulsifier-containing water to the desired concentration. If the addition of ammonium salts or/and penetrants is required, these are in each case added in a concentration of 1000 ppm to the solution of the preparations. Discs of bean leaves (Phaseolus vulgaris) which are infested by all stages of the leaf-mining fly (Liriomyza trifolii) are sprayed with an active compound preparation of the desired concentration. After the desired period of time, the activity in % is determined. 100% means that all of the leaf-mining flies have been killed; 0% means that none of the leaf-mining flies have been killed.

Lucilia cuprina larvae = experiment: Lucilia cuprina test (LUCICU); conditions: 100 ppm, after 2 days
Experimental: Lucilia Cuprina Test (LUCICU) [table] To prepare an appropriate active compound formulation, 10 mg of active compound are mixed with 0.5 ml of dimethyl sulfoxide and the concentrate is diluted with water to the desired concentration. Vessels containing horse meat treated with the active compound preparation of the desired concentration are populated with about 20 Lucilia cuprina larvae. After 2 days, the kill in % is determined. 100% means that all of the larvae have been killed; 0% means that none of the larvae have been killed.

Boophilus microplus = Boophilus microplus test (BOOPMI injection); conditions: 20 μg/animal, after 7 days
Experimental: Boophilus Microplus Test (BOOPMI Injection) [table] To prepare an appropriate active compound formulation, 10 mg of active compound are mixed with 0.5 ml of solvent and the concentrate is diluted with solvent to the desired concentration. The solution of active compound is injected into the abdomen (Boophilus microplus), and the animals are transferred into dishes and kept in a climatized room. The activity is assessed by deposition of fertile eggs. After 7 days, the effect in % is determined. 100% means that none of the ticks has laid any fertile eggs.

Tetranychus urticae = experiment: Tetranychus test (TETRUR spray treatment; OP-resistant in Example 10)
Experimental: Tetranychus Test (TETRUR Spray Treatment)
To produce a suitable preparation of active compound, 1 part by weight of active compound is mixed with the stated amount of solvent and emulsifier, and the concentrate is diluted with emulsifier-containing water to the desired concentration. Discs of bean leaves (Phaseolus vulgaris) which are infested by all stages of the greenhouse red spider mite (Tetranychus urticae) are sprayed with an active compound preparation of the desired concentration.
After 5 days, the effect in % is determined. 100% means that all of the spider mites have been killed; 0% means that none of the spider mites have been killed.
Tetranychus Test, OP-Resistant (TETRUR Spray Treatment)
To produce a suitable preparation of active compound, 1 part by weight of active compound is mixed with the stated amount of solvent and emulsifier, and the concentrate is diluted with emulsifier-containing water to the desired concentration.
Discs of bean leaves (Phaseolus vulgaris) which are infested by all stages of the greenhouse red spider mite (Tetranychus urticae) are sprayed with an active compound preparation of the desired concentration.
After the desired period of time, the activity in % is determined. 100% means that all of the spider mites have been killed; 0% means that none of the spider mites have been killed.

Spodoptera frugiperda = Spodoptera frugiperda test (SPODFR spray treatment)
Experimental: Spodoptera Frugiperda Test (SPODFR Spray Treatment) [table] To produce a suitable preparation of active compound, 1 part by weight of active compound is mixed with the stated amount of solvent and emulsifier, and the concentrate is diluted with emulsifier-containing water to the desired concentration. Discs of corn leaves (Zea mays) are sprayed with an active compound preparation of the desired concentration and, after drying, populated with caterpillars of the armyworm (Spodoptera frugiperda). After 7 days, the effect in % is determined. 100% means that all caterpillars have been killed; 0% means that none of the caterpillars have been killed. Spodoptera Frugiperda Test (SPODFR Spray Treatment) To produce a suitable preparation of active compound, 1 part by weight of active compound is mixed with the stated amount of solvent and emulsifier, and the concentrate is diluted with emulsifier-containing water to the desired concentration. Discs of corn leaves (Zea mays) are sprayed with an active compound preparation of the desired concentration and, after drying, populated with caterpillars of the armyworm (Spodoptera frugiperda). After the desired period of time, the activity in % is determined. 100% means that all caterpillars have been killed; 0% means that none of the caterpillars have been killed.

Phaedon cochleariae = experiment: Phaedon test (PHAECO spray treatment); conditions: application rate 500 g/ha, after 7 days, Chinese cabbage leaf discs
Experimental: Phaedon Test ([…] Spray Treatment) [table] To produce a suitable preparation of active compound, 1 part by weight of active compound is mixed with the stated amount of solvent and emulsifier, and the concentrate is diluted with emulsifier-containing water to the desired concentration. Discs of Chinese cabbage (Brassica pekinensis) are sprayed with an active compound preparation of the desired concentration and, after drying, populated with larvae of the mustard beetle (Phaedon cochleariae). After 7 days, the effect in % is determined 100% means that all beetle larvae have been killed; 0% means that none of the beetle larvae have been killed. Phaedon Test ([…] Spray Treatment) To produce a suitable preparation of active compound, 1 part by weight of active compound is mixed with the stated amount of solvent and emulsifier, and the concentrate is diluted with emulsifier-containing water to the desired concentration. Discs of Chinese cabbage (Brassica pekinensis) are sprayed with an active compound preparation of the desired concentration and, after drying, populated with larvae of the mustard beetle (Phaedon cochleariae). After the desired period of time, the activity in % is determined. 100% means that all beetle larvae have been killed; 0% means that none of the beetle larvae have been killed.

CCOC(=O)OC1=C(c2c(C)cc(C)cc2C)C(=O)C2(CCC(COC)CC2)N1 (stereo not shown) [I-b-3]
% Activity BEMITA (Bemisia tabaci): 72% | effect in % (aphids killed) (Myzus persicae): 90% | % Activity LIRITRI (Liriomyza trifolii): 80% | kill in % (larvae) (Lucilia cuprina larvae): 90% | efficacy in % (deposition of fertile eggs) (Boophilus microplus): 100% | % Activity TETRUR (Tetranychus urticae; 20 g/ha, 5dat, OP-resistant): 80% | effect in % (spider mites killed) (Tetranychus urticae; application rate 100 g/ha, after 5 days, bean leaf discs): 90% | % Activity SPODFR (Spodoptera frugiperda; 500 g/ha, 7dat): 100% | effect in % (caterpillars killed) (Spodoptera frugiperda; application rate 500 g/ha, after 7 days, corn leaf discs): 100% | effect in % (beetle larvae killed) (Phaedon cochleariae): 100%
